How the values were obtained:
[1] = target: T1, human vanilloid-1 (hVR-1) in hVR-1-HEK293 cell line (Homo sapiens, UniProt Q8NER1); experiment: Inhibitory effect on calcium influx via a vanilloid receptor (capsaicin-stimulated, Fluo-3/AM); format: cell-based; conditions: hVR-1-HEK293 cells, 1 μM of capsaicin, compounds 0.015˜2000 nM; read-out: I.A. (inhibitory activity), IC50 on intracellular calcium influx
T1 construct: expressed in transfected cells; host or cells: HEK293 Tet-on strain, doxycycline-induced
T1 sequence (Q8NER1 whole entry): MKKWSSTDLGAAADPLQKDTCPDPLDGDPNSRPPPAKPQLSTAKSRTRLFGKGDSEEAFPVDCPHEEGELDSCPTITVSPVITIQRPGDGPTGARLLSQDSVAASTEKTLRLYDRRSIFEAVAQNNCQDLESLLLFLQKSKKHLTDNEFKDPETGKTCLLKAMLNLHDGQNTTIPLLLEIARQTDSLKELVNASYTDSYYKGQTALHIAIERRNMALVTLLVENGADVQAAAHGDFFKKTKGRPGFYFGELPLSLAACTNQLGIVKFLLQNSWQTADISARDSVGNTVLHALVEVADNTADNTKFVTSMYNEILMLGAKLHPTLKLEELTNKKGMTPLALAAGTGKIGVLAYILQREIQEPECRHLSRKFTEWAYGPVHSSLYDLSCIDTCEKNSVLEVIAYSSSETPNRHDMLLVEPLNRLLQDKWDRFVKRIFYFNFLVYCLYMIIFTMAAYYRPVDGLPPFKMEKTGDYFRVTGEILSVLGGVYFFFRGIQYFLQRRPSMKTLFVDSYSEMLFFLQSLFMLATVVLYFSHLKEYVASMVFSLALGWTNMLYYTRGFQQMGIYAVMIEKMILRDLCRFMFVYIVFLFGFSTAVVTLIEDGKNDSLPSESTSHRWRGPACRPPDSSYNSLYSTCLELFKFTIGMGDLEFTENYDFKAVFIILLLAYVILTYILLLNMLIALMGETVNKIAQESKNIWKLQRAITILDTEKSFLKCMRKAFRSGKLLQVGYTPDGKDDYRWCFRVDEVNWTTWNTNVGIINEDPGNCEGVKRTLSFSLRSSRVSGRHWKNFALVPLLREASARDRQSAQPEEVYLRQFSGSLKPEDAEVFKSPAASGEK
In short: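 Doxycycline-induced (1 μg/mL, 2 days) hVR-1-HEK293 cells loaded with Fluo-3/AM for 90 min at 37° C, then stimulated with 1 μM capsaicin. Calcium influx expressed as background-corrected fluorescence relative to positive control, analysed by Hill equation and graded by activity criteria.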

[2] = test system: ICR male mice; experiment: Phenyl-p-quinone (PBQ)-induced writhing experiment using mice; format: in vivo; conditions: orally administered, PBQ (0.02%) intraperitoneally after 1 hour, writhing counted for 10 min

| IC50 [1] | Compound | I.A. (inhibitory activity), % inhibition rate of writhing [2] |
| --- | --- | --- |
| < 20 nM | CCc1ccc(N2c3cccc(-c4nc5c(Cl)cc(C(F)(F)F)cc5[nH]4)c3OC[C@@H]2CO)nc1 [Example 80, [(S)-8-(4-chloro-6-trifluoromethyl-1H-benzimidazol-2-yl)-4-(5-ethyl-pyridin-2-yl)-3,4-dihydro-2H-benzo[1,4]oxazin-3-yl]-methanol] | +++ (51-80%) |
| 20 to 100 nM | Cc1ccc(N2CCOc3c(-c4nc5c(Br)cc(C(F)(F)F)cc5[nH]4)cccc32)nc1 [Example 31, 8-(4-bromo-6-trifluoromethyl-1H-benzimidazol-2-yl)-4-(5-methyl-pyridin-2-yl)-3,4-dihydro-2H-benzo[1,4]oxazine] | ++ (20˜50%) |
| 20 to 100 nM | Cc1ccc(N2c3cccc(-c4nc5c(C(F)(F)F)cc(C(F)(F)F)cc5[nH]4)c3OC[C@@H]2CO)nc1 [Example 40, [(S)-8-(4,6-bis-trifluoromethyl-1H-benzimidazol-2-yl)-4-(5-methyl-pyridin-2-yl)-3,4-dihydro-2H-benzo[1,4]oxazin-3-yl]-methanol] | ++++ (>80%) |
| < 20 nM | Cc1ccc(N2c3cccc(-c4nc5cc(F)c(F)cc5[nH]4)c3OC[C@@H]2CO)nc1 [Example 44, [(S)-8-(5,6-difluoro-1H-benzimidazol-2-yl)-4-(5-methyl-pyridin-2-yl)-3,4-dihydro-2H-benzo[1,4]oxazin-3-yl]-methanol] | ++++ (>80%) |
| 20 to 100 nM | C=Cc1ccc(N2c3cccc(-c4nc5cc(F)c(F)cc5[nH]4)c3OC[C@@H]2CO)nc1 [Example 69, [(S)-8-(5,6-difluoro-1H-benzimidazol-2-yl)-4-(5-vinyl-pyridin-2-yl)-3,4-dihydro-2H-benzo[1,4]oxazin-3-yl]-methanol] | +++ (51-80%) |
| < 20 nM | Cc1ccc(N2c3cccc(-c4nc5c(C)c(C)ccc5[nH]4)c3OC[C@@H]2CO)nc1 [Example 52, [(S)-8-(4,5-dimethyl-1H-benzimidazol-2-yl)-4-(5-methyl-pyridin-2-yl)-3,4-dihydro-2H-benzo[1,4]oxazin-3-yl]-methanol] | ++ (20˜50%) |
| < 20 nM | COC[C@H]1COc2c(-c3nc4cc(Cl)c(F)cc4[nH]3)cccc2N1c1ccc(C)cn1 [Example 103, (S)-8-(5-chloro-6-fluoro-1H-benzimidazol-2-yl)-3-methoxymethyl-4-(5-methyl-pyridin-2-yl)-3,4-dihydro-2H-benzo[1,4]oxazine] | +++ (51-80%) |
| < 20 nM | Cc1ccc(N2c3cccc(-c4nc5cc(C)ccc5[nH]4)c3OC[C@@H]2CO)nc1 [Example 51, [(S)-8-(5-methyl-1H-benzimidazol-2-yl)-4-(5-methyl-pyridin-2-yl)-3,4-dihydro-2H-benzo[1,4]oxazin-3-yl]-methanol] | + (<20%) |
| < 20 nM | COC[C@H]1COc2c(-c3nc4c(Cl)cc(C(F)(F)F)cc4[nH]3)cccc2N1c1ccc(C)cn1 [Example 92, (S)-8-(4-chloro-6-trifluoromethyl-1H-benzimidazol-2-yl)-3-methoxymethyl-4-(5-methyl-pyridin-2-yl)-3,4-dihydro-2H-benzo[1,4]oxazine] | ++ (20˜50%) |
| < 20 nM | Cc1ccc(N2c3cccc(-c4nc5c(Cl)cc(C(F)(F)F)cc5[nH]4)c3OC[C@@H]2CO)nc1 [Example 39, [(S)-8-(4-chloro-6-trifluoromethyl-1H-benzimidazol-2-yl)-4-(5-methyl-pyridin-2-yl)-3,4-dihydro-2H-benzo[1,4]oxazin-3-yl]-methanol] | +++ (51-80%) |
| 20 to 100 nM | Cc1ccc(N2c3cccc(-c4nc5c(Br)cc(Br)cc5[nH]4)c3OC[C@@H]2CO)nc1 [Example 42, [(S)-8-(4,6-dibromo-1H-benzimidazol-2-yl)-4-(5-methyl-pyridin-2-yl)-3,4-dihydro-2H-benzo[1,4]oxazin-3-yl]-methanol] | +++ (51-80%) |
